ChEMBL document CHEMBL1149513, “Arylpropionylpiperazines as antagonists of the human melanocortin-4 receptor” (Bioorg Med Chem Lett, 2006)

Experiments:
[1] = target: T1, Melanocortin receptor 4 (Homo sapiens, UniProt P32245); assay: Displacement of [125I]NDP-MSH from human MC4R expressed in HEK293 cells; assay type: cell-based
[2] = Lipophilicity, Log D of the compound; assay type: physicochemical; conditions: octanol/water
[3] = Drug level in mouse brain after 4 hrs at 5 mg/kg, iv; assay type: ADME, organism-based; set-up: dose 5 mg/kg, route intravenous; conditions: read-out: Drug uptake
[4] = target: T1, Melanocortin receptor 4; assay: Activity at MC4R assessed as inhibition of alpha-MSH-stimulated cAMP production; assay type: functional
[5] = Half life in mouse at 5 mg/kg, iv; assay type: ADME, organism-based; set-up: dose 5 mg/kg, route intravenous; conditions: in vivo
[6] = Drug level in mouse brain after 1 hr at 5 mg/kg, iv; assay type: ADME, organism-based; set-up: dose 5 mg/kg, route intravenous; conditions: read-out: Drug uptake
[7] = Bioavailability in mouse at 10 mg/kg, po; assay type: ADME, organism-based; conditions: in vivo
[8] = Ratio of drug level in brain against plasma in mouse after 1 hr at 5 mg/kg, iv; assay type: ADME, organism-based; set-up: dose 5 mg/kg, route intravenous; conditions: read-out: BPR
[9] = target: Melanocortin receptor 3 (Homo sapiens, UniProt P41968); assay: Displacement of [125I]NDP-MSH from human MC3R expressed in HEK293 cells; assay type: cell-based
[10] = Ratio of drug level in brain against plasma in mouse after 4 hrs at 5 mg/kg, iv; assay type: ADME, organism-based; set-up: dose 5 mg/kg, route intravenous; conditions: read-out: BPR
[11] = target: Melanocortin receptor 5 (Homo sapiens, UniProt P33032); assay: Displacement of [125I]NDP-MSH from human MC5R expressed in HEK293 cells; assay type: cell-based
[12] = Cmax in mouse at 10 mg/kg, po; assay type: ADME, organism-based; set-up: dose 10 mg/kg, route oral; conditions: in vivo
[13] = target: Melanocortin receptor (M4 and M5) (Homo sapiens) (UniProt P32245+P33032); assay: Selectivity for MC4R over MC5R; assay type: protein assay
[14] = test system: Mus musculus; assay: AUC in mouse at 5 mg/kg, iv; assay type: ADME, organism-based, Plasma; set-up: dose 5 mg/kg, route intravenous; conditions: in vivo
[15] = Tmax in mouse at 10 mg/kg, po; assay type: ADME, organism-based; set-up: dose 10 mg/kg, route oral; conditions: in vivo
[16] = Volume of distribution in mouse at 5 mg/kg, iv; assay type: ADME, organism-based; set-up: dose 5 mg/kg, route intravenous; conditions: in vivo, read-out: Vdss
[17] = target: Melanocyte-stimulating hormone receptor (Homo sapiens) (UniProt Q01726); assay: Inhibition of [125I]NDP-MSH binding to human MC1R expressed in HEK293 cells; assay type: cell-based; conditions: concentration not given here
[18] = Clearance in mouse at 5 mg/kg, iv; assay type: ADME, organism-based; set-up: dose 5 mg/kg, route intravenous; conditions: in vivo
[19] = test system: Mus musculus; assay: AUC in mouse at 10 mg/kg, po; assay type: ADME, organism-based, Plasma; set-up: dose 10 mg/kg, route oral; conditions: in vivo

Melanocyte-stimulating hormone receptor (Homo sapiens), sequence (Q01726 whole entry, looked up): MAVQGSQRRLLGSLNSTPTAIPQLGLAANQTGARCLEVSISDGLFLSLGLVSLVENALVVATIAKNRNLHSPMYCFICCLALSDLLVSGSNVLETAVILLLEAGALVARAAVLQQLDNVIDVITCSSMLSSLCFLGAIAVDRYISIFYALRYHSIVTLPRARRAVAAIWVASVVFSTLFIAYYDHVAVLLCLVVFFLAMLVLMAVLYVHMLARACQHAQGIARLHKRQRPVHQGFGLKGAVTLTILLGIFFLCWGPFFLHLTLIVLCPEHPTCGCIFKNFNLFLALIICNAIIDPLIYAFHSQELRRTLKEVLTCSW
Melanocortin receptor 3, sequence (P41968 whole entry): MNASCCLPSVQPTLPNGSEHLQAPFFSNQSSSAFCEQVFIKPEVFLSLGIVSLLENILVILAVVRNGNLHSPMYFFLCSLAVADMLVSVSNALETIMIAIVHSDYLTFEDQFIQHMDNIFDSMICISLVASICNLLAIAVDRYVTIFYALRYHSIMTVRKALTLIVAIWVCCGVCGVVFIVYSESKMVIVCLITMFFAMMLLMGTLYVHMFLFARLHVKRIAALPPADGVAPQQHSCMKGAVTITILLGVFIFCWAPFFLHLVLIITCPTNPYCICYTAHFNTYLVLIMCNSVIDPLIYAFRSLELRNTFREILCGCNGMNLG
Melanocortin receptor 5, sequence (P33032 whole entry): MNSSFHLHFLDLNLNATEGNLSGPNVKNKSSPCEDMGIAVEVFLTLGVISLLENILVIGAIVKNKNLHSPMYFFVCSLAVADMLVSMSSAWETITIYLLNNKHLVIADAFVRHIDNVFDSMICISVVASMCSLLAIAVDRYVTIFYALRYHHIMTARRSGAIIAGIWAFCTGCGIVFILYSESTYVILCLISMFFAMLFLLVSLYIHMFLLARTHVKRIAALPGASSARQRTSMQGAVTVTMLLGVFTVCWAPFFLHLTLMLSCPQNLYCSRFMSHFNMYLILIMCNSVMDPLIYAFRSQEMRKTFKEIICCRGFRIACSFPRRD
T1 sequence (P32245 whole entry): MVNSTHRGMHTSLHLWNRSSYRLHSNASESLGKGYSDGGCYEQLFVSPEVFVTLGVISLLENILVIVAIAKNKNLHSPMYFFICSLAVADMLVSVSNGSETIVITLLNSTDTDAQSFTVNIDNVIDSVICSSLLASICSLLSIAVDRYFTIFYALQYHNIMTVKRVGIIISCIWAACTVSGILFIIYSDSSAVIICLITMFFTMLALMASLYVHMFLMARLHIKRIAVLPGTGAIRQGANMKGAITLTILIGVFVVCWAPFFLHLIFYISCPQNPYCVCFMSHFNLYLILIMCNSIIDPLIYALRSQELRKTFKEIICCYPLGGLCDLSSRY
Melanocortin receptor (M4 and M5) (Homo sapiens), sequence (P32245 whole entry, looked up): as the sequence (P32245 whole entry) above
Melanocortin receptor (M4 and M5) (Homo sapiens), sequence (P33032 whole entry, looked up): as the sequence (P33032 whole entry) above

| Structure (SMILES) | Ki [1] | also measured |
| --- | --- | --- |
| CCC(C)[C@H](NCC1CCCO1)c1cc(C(F)(F)F)ccc1N1CCN(C(=O)CCc2ccc(Cl)cc2Cl)CC1 (stereo not given in full) | 780 nM |  |
| CC(C)C[C@H](N)c1cc(F)ccc1N1CCN(C(=O)CCc2ccc(Cl)cc2Cl)CC1 | 94 nM |  |
| CC(C)C[C@H](N)c1cc(C(F)(F)F)ccc1N1CCN(C(=O)CCc2cccs2)CC1 | 4600 nM |  |
| Cc1[nH]c2ccccc2c1CCC(=O)N1CCN(c2ccc(C(F)(F)F)cc2[C@@H](N)CC(C)C)CC1 | 1600 nM |  |
| CC(C)C[C@H](N)c1cc(C(F)(F)F)ccc1N1CCN(C(=O)CCc2ccccc2Cl)CC1 | 1700 nM |  |
| Cc1cccc(CCC(=O)N2CCN(c3ccc(C(F)(F)F)cc3[C@@H](N)CC(C)C)CC2)c1 | 2100 nM |  |
| NCCC(=O)NC(COCc1ccccc1)c1cc(F)ccc1N1CCN(C(=O)CCc2ccc(Cl)cc2Cl)CC1 (stereo not given) | 210 nM |  |
| COCCN[C@@H](CC(C)C)c1cc(C(F)(F)F)ccc1N1CCN(C(=O)CCc2ccc(Cl)cc2Cl)CC1 | 620 nM |  |
| CCN[C@@H](CC(C)C)c1cc(C(F)(F)F)ccc1N1CCN(C(=O)CCc2ccc(Cl)cc2Cl)CC1 | 170 nM |  |
| CCCCC(N)c1cc(C(F)(F)F)ccc1N1CCN(C(=O)CCc2ccc(Cl)cc2Cl)CC1 (stereo not given) | 190 nM |  |
| CC(C)C[C@H](N)c1cc(C(F)(F)F)ccc1N1CCN(C(=O)CCc2ccc3c(c2)OCO3)CC1 | 1500 nM |  |
| CCC(C)CN[C@H](c1cc(C(F)(F)F)ccc1N1CCN(C(=O)CCc2ccc(Cl)cc2Cl)CC1)C(C)CC (stereo not given in full) | 2800 nM |  |
| CC(C)C[C@H](NC(=O)CN)c1cc(C(F)(F)F)ccc1N1CCN(C(=O)CCc2ccc(Cl)cc2Cl)CC1 | 19 nM | logD [2]: 4.5; concentration at 4 h [3]: 33 ng/g; IC50 [4]: 1300 nM; half-life [5]: 3.8 h; concentration at 1 h [6]: 43 ng/g; bioavailability [7]: 11.2%; Kp at 1 h [8]: 0.08; Ki [9]: 1200 nM; Kp at 4 h [10]: 0.17; Ki [11]: 500 nM; Cmax [12]: 115 ng/mL; Selectivity ratio [13]: > 25; AUC [14]: 3070 ng·h/mL; Tmax [15]: 2 h; Vd [16]: 8.8 L/kg; inhibition [17]: 18%; clearance [18]: 26.9 mL/min/kg; AUC [19]: 687 ng·h/mL |
| NCCNC(COCc1ccccc1)c1cc(F)ccc1N1CCN(C(=O)CCc2ccc(Cl)cc2Cl)CC1 (stereo not given) | 400 nM |  |
| CCC(C)[C@H](NC[C@H](C)N)c1cc(C(F)(F)F)ccc1N1CCN(C(=O)CCc2ccc(Cl)cc2Cl)CC1 (stereo not given in full) | 89 nM |  |
| CC(C)C[C@H](N)c1cc(C(F)(F)F)ccc1N1CCN(C(=O)CCc2ccc(S(C)(=O)=O)cc2)CC1 | 4900 nM |  |
| CCC(C)[C@H](NCc1ccccc1)c1cc(C(F)(F)F)ccc1N1CCN(C(=O)CCc2ccc(Cl)cc2Cl)CC1 (stereo not given in full) | 5900 nM |  |
| CC(C)C[C@H](N)c1cccc(F)c1N1CCN(C(=O)CCc2ccc(Cl)cc2Cl)CC1 | 110 nM | Ki [9]: 1400 nM; Ki [11]: 1200 nM; inhibition [17]: 21% |
| CCOCC(NC(=O)CCN)c1cc(F)ccc1N1CCN(C(=O)CCc2ccc(Cl)cc2Cl)CC1 (stereo not given) | 300 nM |  |

| Structure (SMILES) | Ki [1] | also measured |
| --- | --- | --- |
| CCC(C)[C@H](N)c1cc(C(F)(F)F)ccc1N1CCN(C(=O)CCc2ccc(Cl)cc2)CC1 (stereo not given in full) | 86 nM |  |
| CCN[C@H](c1cc(C(F)(F)F)ccc1N1CCN(C(=O)CCc2ccc(Cl)cc2Cl)CC1)C(C)CC (stereo not given in full) | 92 nM |  |
| NC(COCc1ccccc1)c1cc(F)ccc1N1CCN(C(=O)CCc2ccc(Cl)cc2Cl)CC1 (stereo not given) | 1000 nM |  |
| CC(C)C[C@H](NC(=O)CCN)c1cc(C(F)(F)F)ccc1N1CCN(C(=O)CCc2ccc(Cl)cc2Cl)CC1 | 25 nM |  |
| CC(C)C[C@H](N)c1cc(C(F)(F)F)ccc1N1CCN(C(=O)CCc2c[nH]c3ccccc23)CC1 | 640 nM |  |
| COc1cc(OC)c(OC)cc1CCC(=O)N1CCN(c2ccc(C(F)(F)F)cc2[C@@H](N)CC(C)C)CC1 | 6100 nM |  |
| CCOCC(N)c1cc(F)ccc1N1CCN(C(=O)CCc2ccc(Cl)cc2Cl)CC1 (stereo not given) | 690 nM |  |
| CCC(C)[C@H](NCCN)c1cc(C(F)(F)F)ccc1N1CCN(C(=O)CCc2ccc(Cl)cc2Cl)CC1 (stereo not given in full) | 56 nM |  |
| CC(C)C[C@H](N)c1cc(C(F)(F)F)ccc1N1CCN(C(=O)CCc2ccccc2F)CC1 | 2800 nM |  |
| CC[C@H](C)C(N)c1cc(C(F)(F)F)ccc1N1CCN(C(=O)CCc2ccc(Cl)cc2Cl)CC1 (stereo not given in full) | 75 nM |  |
| CCC(C)[C@H](NC(=O)OC)c1cc(C(F)(F)F)ccc1N1CCN(C(=O)CCc2ccc(Cl)cc2Cl)CC1 (stereo not given in full) | 2400 nM |  |
| CC(C)C(N)c1cc(C(F)(F)F)ccc1N1CCN(C(=O)CCc2ccc(Cl)cc2Cl)CC1 (stereo not given) | 140 nM |  |
| COc1cccc(CCC(=O)N2CCN(c3ccc(C(F)(F)F)cc3[C@@H](N)CC(C)C)CC2)c1 | 4000 nM |  |
| CCC(C)C(N)c1cc(C(F)(F)F)ccc1N1CCN(C(=O)CCc2ccc(Cl)cc2Cl)CC1 (stereo not given) | 160 nM |  |
| CC(C)C[C@H](N)c1cc(C(F)(F)F)ccc1N1CCN(C(=O)CCc2ccc(O)cc2)CC1 | > 10000 nM |  |
| CCC(C)[C@H](NC(C)=O)c1cc(C(F)(F)F)ccc1N1CCN(C(=O)CCc2ccc(Cl)cc2Cl)CC1 (stereo not given in full) | 360 nM |  |
| CCC(C)[C@H](NC[C@H]1CCCN1)c1cc(C(F)(F)F)ccc1N1CCN(C(=O)CCc2ccc(Cl)cc2Cl)CC1 (stereo not given in full) | 110 nM |  |
| COc1ccc(OC)c(CCC(=O)N2CCN(c3ccc(C(F)(F)F)cc3[C@@H](N)CC(C)C)CC2)c1 | 2500 nM |  |
| CCC(C)[C@H](NCCc1ccccc1)c1cc(C(F)(F)F)ccc1N1CCN(C(=O)CCc2ccc(Cl)cc2Cl)CC1 (stereo not given in full) | 2600 nM |  |

| Structure (SMILES) | Ki [1] | also measured |
| --- | --- | --- |
| COc1ccc(CCC(=O)N2CCN(c3ccc(C(F)(F)F)cc3[C@@H](N)CC(C)C)CC2)cc1 | 350 nM |  |
| CC(C)C[C@H](N)c1cc(C(F)(F)F)ccc1N1CCN(C(=O)CCc2cn(C)c3ccccc23)CC1 | 3000 nM |  |
| CC(C)C[C@H](N)c1cc(C(F)(F)F)ccc1N1CCN(C(=O)CCc2ccccc2O)CC1 | 3300 nM |  |
| CC(N)c1cc(C(F)(F)F)ccc1N1CCN(C(=O)CCc2ccc(Cl)cc2Cl)CC1 (stereo not given) | 490 nM |  |
| CCC(C)[C@H](NC[C@@H]1CCCN1)c1cc(C(F)(F)F)ccc1N1CCN(C(=O)CCc2ccc(Cl)cc2Cl)CC1 (stereo not given in full) | 64 nM |  |
| CCC(C)[C@H](N)c1cc(C(F)(F)F)ccc1N1CCN(C(=O)CCc2ccc(OC)c(OC)c2Cl)CC1 (stereo not given in full) | 2500 nM |  |
| CC(C)C[C@H](N)c1cc(C(F)(F)F)ccc1N1CCN(C(=O)CCc2cccc(C(F)(F)F)c2)CC1 | 2200 nM |  |
| CCC(C)[C@H](NCc1ccccc1F)c1cc(C(F)(F)F)ccc1N1CCN(C(=O)CCc2ccc(Cl)cc2Cl)CC1 (stereo not given in full) | > 10000 nM |  |
| CN[C@@H](CC(C)C)c1cc(C(F)(F)F)ccc1N1CCN(C(=O)CCc2ccc(Cl)cc2Cl)CC1 | 1900 nM |  |
| CCC(C)[C@H](NS(C)(=O)=O)c1cc(C(F)(F)F)ccc1N1CCN(C(=O)CCc2ccc(Cl)cc2Cl)CC1 (stereo not given in full) | 1800 nM |  |
| CCC(C)[C@H](N)c1cc(C(F)(F)F)ccc1N1CCN(C(=O)CCc2ccc(OC)cc2Cl)CC1 (stereo not given in full) | 57 nM |  |
| CCC(C)[C@H](NC(=O)CCN)c1cc(C(F)(F)F)ccc1N1CCN(C(=O)CCc2ccc(Cl)cc2Cl)CC1 (stereo not given in full) | 13 nM | logD [2]: 4; concentration at 4 h [3]: 70 ng/g; IC50 [4]: 1100 nM; half-life [5]: 5.2 h; concentration at 1 h [6]: 62 ng/g; bioavailability [7]: 26.1%; Kp at 1 h [8]: 0.02; Ki [9]: 800 nM; Kp at 4 h [10]: 0.03; Ki [11]: 170 nM; Cmax [12]: 1170 ng/mL; AUC [14]: 23100 ng·h/mL; Tmax [15]: 6 h; Vd [16]: 1.6 L/kg; inhibition [17]: 17%; clearance [18]: 3.5 mL/min/kg; AUC [19]: 12100 ng·h/mL |
| CCC(C)[C@H](NC(=O)CN)c1cc(C(F)(F)F)ccc1N1CCN(C(=O)CCc2ccc(Cl)cc2Cl)CC1 (stereo not given in full) | 18 nM |  |
| CCC(C)[C@H](NCCCN)c1cc(C(F)(F)F)ccc1N1CCN(C(=O)CCc2ccc(Cl)cc2Cl)CC1 (stereo not given in full) | 30 nM |  |
| COc1ccc(CCC(=O)N2CCN(c3ccc(C(F)(F)F)cc3[C@@H](N)CC(C)C)CC2)cc1OC | 4300 nM |  |
| CC(C)C[C@H](N)c1cc(C(F)(F)F)ccc1N1CCN(C(=O)CCc2csc3ccccc23)CC1 | 2300 nM |  |
| COc1ccccc1CCC(=O)N1CCN(c2ccc(C(F)(F)F)cc2[C@@H](N)CC(C)C)CC1 | 1400 nM |  |
| CC(C)C[C@H](N)c1cc(C(F)(F)F)ccc1N1CCN(C(=O)CCc2ccc(Cl)cc2Cl)CC1 | 74 nM |  |
| CC(C)C[C@H](N)c1cc(C(F)(F)F)ccc1N1CCN(C(=O)CCc2c(Cl)cccc2Cl)CC1 | 2600 nM |  |
